SMILES strings stand for the structures.

In this test the target is T1, rhCRTh2 (Homo sapiens, UniProt Q9Y5Y4).
T1 construct: expressed in transfected cells; host or cells: HEK cells (membrane preparation)
T1 sequence (Q9Y5Y4 1-395): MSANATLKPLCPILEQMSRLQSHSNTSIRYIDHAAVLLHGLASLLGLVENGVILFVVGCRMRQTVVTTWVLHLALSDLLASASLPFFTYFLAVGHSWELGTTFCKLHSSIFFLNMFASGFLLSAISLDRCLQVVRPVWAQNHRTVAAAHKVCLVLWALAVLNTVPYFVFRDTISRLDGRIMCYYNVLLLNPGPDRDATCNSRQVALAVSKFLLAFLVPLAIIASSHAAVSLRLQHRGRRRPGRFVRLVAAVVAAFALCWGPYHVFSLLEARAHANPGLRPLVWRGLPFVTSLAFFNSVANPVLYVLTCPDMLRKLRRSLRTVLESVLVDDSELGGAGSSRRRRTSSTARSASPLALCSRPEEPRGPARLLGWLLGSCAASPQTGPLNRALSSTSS
Kind of test: Ligand Binding Assay ([3H]PGD2 SPA binding). As to conditions: [3H]PGD2 binding, membranes of HEK cells expressing rhCRTh2/Gα16, SPA beads, 2 hours room temperature; read-out: pIC50 value (converted). The procedure:
[^3H]PGD2 was purchased from Perkin Elmer Life Sciences with a specific activity of 100-210 Ci/mmol. All other chemicals were of analytical grade.
HEK cells expressing rhCRTh2/Gα16 were routinely maintained in DMEM containing 10% Foetal Bovine Serum (HyClone), 1 mg/ml geneticin, 2 mM L-glutamine and 1% non-essential amino acids. For the preparation of membranes, the adherent transfected HEKcells were grown to confluence in two layer tissue culture factories (Fisher, catalogue number TKT-170-070E). Maximal levels of receptor expression were induced by addition of […] sodium butyrate for the last 18 hours of culture. The adherent cells were washed once with phosphate buffered saline (PBS, 50 ml per cell factory) and detached by the addition of 50 ml 0.1 mM dithiothreitol, 1 mM EDTA, 0.1 mM phenyl methyl sulphonyl fluoride and 100 μg/ml bacitracin]. Cells were pelleted by centrifugation at 220×g for 10 minutes at 4° C., re-suspended in half the original volume of fresh membrane homogenisation buffer and disrupted using a Polytron homogeniser for 2×20 second bursts keeping the tube in ice at all times. Unbroken cells were removed by centrifugation at 220×g for 10 minutes at 4° C. and the membrane fraction pelleted by centrifugation at 90000×g for 30 minutes at 4° C. The final pellet was re-suspended in 4 ml of membrane homogenisation buffer per cell factory used and the protein content determined. Membranes were stored at −80° C. in suitable aliquots.
All assays were performed in Corning clear bottomed, white 96-well NBS plates (Fisher). Prior to assay, the HEK cells membranes containing CRTh2 were coated onto SPA PVT WGA beads (Amersham). For coating membranes were incubated with beads at typically 25 μg membrane protein per mg beads at 4° C. with constant agitation overnight. (The optimum coating concentrations were determined for each batch of membranes) The beads were pelleted by centrifugation (800×g for 7 minutes at 4° C.), washed once with assay buffer (50 mM HEPES pH 7.4 containing 5 mM magnesium chloride) and finally re-suspended in assay buffer at a bead concentration of 10 mg/ml.
Each assay contained 20 μl of 6.25 nM [^3H]PGD2, 20 μl membrane saturated SPA beads both in assay buffer and 10 μl of compound solution or 13,14-dihydro-15-keto prostaglandin D2 (DK-PGD2, for determination of non-specific binding, Cayman chemical company).
Compounds and DK-PGD2 were dissolved in DMSO and diluted in the same solvent to 100× the required final concentration. […] The assay plate was incubated at room temperature for 2 hours and counted on a Wallac Microbeta liquid scintillation counter (1 minute per well).
For `O=C(O)COc1ccc(C(F)(F)F)cc1CN1CCN(C(=O)Cc2cccs2)CC1` [Example 42, [2-[[4-(2-thienylacetyl)-1-piperazinyl]methyl]-4-(trifluoromethyl)phenoxy]-acetic Acid], the IC50 was 132 nM.
In the case of `O=C(O)COc1ccc(C(F)(F)F)cc1CN1CCCN(S(=O)(=O)c2ccc(F)cc2)CC1` [example 7, [2-[[4-[(4-fluorophenyl)sulfonyl]hexahydro-1H-1,4-diazepin-1-yl]methyl]-4-(trifluoromethyl)phenoxy]-acetic acid], the IC50 is 89.1 nM.
Consider `CC1CN(Cc2cc(Cl)ccc2OCC(=O)O)CCN1S(=O)(=O)c1ccccc1` (stereo not shown) [example 57, [4-Chloro-2-[[3-methyl-4-(phenylsulfonyl)-1-piperazinyl]methyl]phenoxy]acetic Acid], for which the IC50 was 5.01 nM.
The value for `C[C@H]1CN(Cc2cc(Cl)ccc2OCC(=O)O)CCN1C(=O)Cc1cccc(F)c1` [example 91, [4-chloro-2-[[(3S)-4-[(3-fluorophenyl)acetyl]-3-methyl-1-piperazinyl]methyl]phenoxy]-acetic Acid] was 15.8 nM.

Values taken from patent publication US8524715B2, “Phenoxyacetic acid derivatives useful for treating respiratory diseases” (Astrazeneca AB, priority 2004, dated 2013).
